Patent publication US20010041708A1, “Compositions for preventing cellulite in mammalian skin” (Zen-Bio, Inc., priority 2000, published 2001)
“And” between values parts separate entries of the source, which are not always exact repeats. Identical values can stand only once.

Columns and labels:
[1] = test system: stromal vascular (SV) cells from human adipose tissue; assay: Percentage of cells differentiated into adipocytes (Oil Red O staining); type: cell-based; conditions: Exp. 1, seeding density 4×10^4
Method: (§1) Experiment 1 was designed to determine optimal culturing conditions during differentiation of primary cultures of SV cells isolated from human adipose tissue. Specifically, the experiment was designed to determine how seeding density and thiazolidinedione (TZD; PPARγ-agonist BRL 49653) concentration influenced TG content (ug/10^6cells). SV cells were seeded at increasing densities (2-, 3-, or 4×10^4/cm^2) in differentiation media containing 0, 1, or 10 uM TZD (BRL 49653) in this 3×3 factorial design. All cultures received the same adipocyte media after 3 d of differentiation. The cultures were harvested on day 11-12 of differentiation and TG content and cell number were measured. Another set of cultures was stained with Oil Red O and counterstained with Mayer's hematoxylin to assess cellular differentiation potential (n=3 per treatment combination).
The presence of intracellular lipid was visualized by staining cultures with Oil Red O as previously described for human SV cultures (McIntosh et al. (1999) Int. J. Obesity 23:595-602). […] Counterstaining allows for quantifying the percentage of cells that have undergone differentiation (e.g., […]). […]

[2] = test system: stromal vascular (SV) cells from human adipose tissue; assay: Triglyceride (TG) content of differentiating primary cultures of SV cells; type: cell-based; conditions: for TG content, dose response: Exp. 3, 1, 3, 10, 30 uM; for More TG content than cultures treated with 10 uM trans-10, cis-12 CLA alone: Exp. 4
Method: Abdominal adipose tissue (Exp. 1-5) and thigh adipose tissue (Exp. 5b) were obtained from middle-aged females with body mass indexes <30.0 during liposuction or elective surgery. Subsequently, tissue was minced and enzymatically digested for 45 min in a Krebs-Ringer buffer containing 1 mg/mL collagenase (CLS-1, Worthington Biochemical Corp, Lakewood, N.J.), 15 mg/mL bovine serum albumin (BSA), 5 mM glucose and 100 mM HEPES (pH 7.4). Digestion was carried out at a 5 mL/1 g ratio (digestion solution: tissue mass). The digesta was then filtered through 200- and 60-micron mesh and pelleted at 600×g for 5 min. The SV cells were resuspended in a RBC lysis buffer for 10 min and then filtered and recentrifuged to remove contaminating […]. Cultures of SV cells were grown in proliferation medium containing 90% DME/Ham's F-10 (1:1, v/v), 10% (v/v) fetal bovine serum (FBS), 15 mM HEPES (pH 7.4), 60 U/mL penicillin, 60 U/mL streptomycin, and 25 ug/mL fungizone. Cultures were incubated at 37° C. in a humidified […]:CO2 (90:10%) atmosphere. SV cells were grown to 80% confluency and then cryopreserved in liquid nitrogen in aliquots (2×10^6 cells/mL).
Cryopreserved aliquots were subsequently thawed, seeded in T-150 flasks (e.g., 1 vial per 2 T-150 flasks), and grown in proliferation media until 80% confluent. At this time the cells were removed via trypsinization, seeded (3×10^4/cm^2, except for Exp. 1) in 24-well or 96-well (Exp. 5b) Falcon dishes, and allowed to attach for 24 h in proliferation medium. Following attachment, cultures were grown in differentiation medium for the next 3 d which contained DME/Ham's F-10 (1:1,v/v), 15 mM HEPES (pH 7.4), 33 uM biotin, 17 uM pantothenate, 100 nM human insulin, 1 uM dexamethasone (DEX), 60 U/mL penicillin, 60 U/mL streptomycin, 25 ug/mL fungizone, 0.25 mM isobutylmethylxanthine (IBMX), and TZD (Exp. 1 & 2=BRL 49653; Exp. 3-5=Zen Bio's proprietary reagent). Thereafter, cultures were exposed to adipocyte medium consisting of 90% DME/Ham's F-10 (1:1,v/v), 15 mM HEPES (pH 7.4), 3% FBS (v/v), 33 uM biotin, 17 uM pantothenate, 100 nM human insulin, 1 uM DEX, 60 U/mL penicillin, 60 U/mL streptomycin, and 25 ug/mL fungizone. Adipocyte media was replaced every 3 d. […] After 18 day in culture, the majority of the cells contained visual lipid droplets.
as §1
In Experiment 2 the impact of linoleic acid and the trans-10, cis-12 isomer of CLA on TG accumulation in these cells was examined. SV cells were seeded at a density of 3×10^4/cm^2 and continuously treated with either 10 uM linoleic acid, 100 uM linoleic acid, 10 uM trans-10, cis-12 CLA, or 100 uM trans-10, cis-12 CLA, and grown under our normal differentiation protocol. One set of control cultures contained only vehicle (BSA) and another contained vehicle plus TZD (BRL 49653). TG content and cell number were measured on day 11 of differentiation.
The objective of Experiment 3 was to evaluate the dose response of trans-10, cis-12 CLA, cis-9, trans-11 CLA, and linoleic acid on TG content of the cultures. […]

[3] = test system: differentiated human adipocytes; assay: Lipolysis measurement (glycerol release) in day 21 differentiated human adipocytes; conditions: 3 hrs
[4] = test system: cultures of thigh adipocytes; assay: Lipolysis assay (glycerol release), thigh adipocytes; type: cell-based, human; conditions: Exp. 5b; 1 uM, 5 h, day 18, thigh
Method: (§2) Subsequently, tissue was minced and enzymatically digested for 45 min in a Krebs-Ringer buffer containing 1 mg/mL collagenase (CLS-1, Worthington Biochemical Corp, Lakewood, N.J.), 15 mg/mL bovine serum albumin (BSA), 5 mM glucose and 100 mM HEPES (pH 7.4). Digestion was carried out at a 5 mL/1 g ratio (digestion solution: tissue mass). The digesta was then filtered through 200- and 60-micron mesh and pelleted at 600×g for 5 min. The SV cells were resuspended in a RBC lysis buffer for 10 min and then filtered and recentrifuged to remove contaminating […]. […] SV cells were grown to 80% confluency and then cryopreserved in liquid nitrogen in aliquots (2×10^6 cells/mL). In Experiment 5b, basal lipolysis was measured on day 18 of differentiation after the cultures had been treated with fatty acids for 5 h. […] Lipolysis was determined by measuring free and esterified glycerol release into the media following acute (5 h) treatment. […] On day 17 of differentiation, cultures were grown in basal adipocyte media (adipocyte media minus insulin and DEX). […] A set of vehicle controls contained 0.1% DMSO. One hundred microliters of conditioned media was removed from each well, and lipolytic rate determined by quantifying the amount of free glycerol and esterified glycerol in each sample using Sigma's triglyceride kit (GPO-Trinder, Sigma Chemical Co.).

[5] = test system: cultures of abdominal adipocytes; assay: Lipolysis assay (glycerol release), abdominal adipocytes; type: cell-based, human; conditions: Exp. 5b; 1 uM, 5 h, day 18, abdominal
Method: as §2

[6] = test system: stromal vascular (SV) cells from human adipose tissue; assay: De novo lipogenesis (14C-glucose incorporation into cellular lipid); type: cell-based; conditions: Exp. 5a; 3, 10, 30 uM, day 12
Method: Experiments 5a and 5b were designed to determine if the trans-10, cis-12 CLA-mediated reduction in TG content was due to decreased lipogenesis and/or increased lipolysis. In Experiment 5a (lipogenesis), SV cells were seeded at a density of 3×10^4/cm^2 and continuously treated with increasing concentrations (3, 10, or 30 uM) of either linoleic acid, cis-9, tran-11 CLA, or trans-10, cis-12 CLA. A set of control cultures received vehicle (BSA) plus TZD. All cultures received differentiation media (days 1-3), adipocyte media (days 4-9), and low-glucose (˜5 mM) adipocyte media (days 10-12) prior to measuring de novo lipogenesis. On day 12, ^14C-labeled glucose incorporation into the lipid fraction of the cultures was measured for 2 h and, following lipid extraction, the radioactivity in the lipid fraction was determined by scintillation counting. Time course data (not shown) indicated a linear increase in radiolabeled glucose incorporation into lipid over 2 h.
Incorporation of ^14C-glucose into cellular lipid was determined on day 12 of differentiation in cultures chronically treated with fatty acids or vehicle. Following the addition of fatty acids and low glucose (˜5 mM) medium to the cultures on day 12, 1.0 μCi [U-^14C]-glucose ([U-^14C]-D-glucose; SA ˜250 mCi/mmol, ICN, Costa Mesa, Calif.)/mL medium was added to the cultures for 2 h. Our time course study (data not shown) indicated a linear increase in radiolabeled glucose incorporation into lipid over a 2 h period. After 2 h, media containing unincorporated ^14C-glucose was immediately removed and the cultures were washed with 1 mL HBSS to remove unincorporated ^14C-glucose. An additional 1 mL of HBSS was added and, after vigorous tritaration, cells were transferred to glass vials. Five milliliters of a chloroform:methanol (2:1) solution was added to each vial and they were vortexed for 1 min. All samples were then centrifuged for 5 min at 1000×g to further separate the hydrophobic and hydrophilic phases. The lower hydrophobic phase was removed from the tubes and dried under nitrogen at 40° C. Five milliliters of scintillation cocktail (Scinti Verse, Fisher Scientific, Norcross, Ga.) was added to each sample, and the ^14C content was determined by liquid scintillation counting on a Beckman LS 6000 Scintillation Counter (Beckman Instruments, Palo Atlo, Calif.). […] The radioactivity in the lipid fraction from these cultures was subtracted from the total counts. Cell numbers were determined from parallel treatment groups in separate culture dishes at the time of radioisotope addition to the medium. Therefore, mean ^14C-glucose incorporation is expressed as cpm/10^6 cells.

3T3-L1 preadipocytes [7] = assay: Fatty acid composition of neutral and phospholipid fractions of treated cultures; type: cell-based, murine
3T3-L1 preadipocytes [8] = assay: Cell number of treated 3T3-L1 cultures; type: cell-based, murine; conditions: data not shown
3T3-L1 preadipocytes [9] = assay: TG content of 3T3-L1 preadipocytes; type: cell-based, murine; conditions: LA supplementation of CLA-treated cultures
PPARγ2 = PPARγ2 protein expression in 3T3-L1 preadipocytes; type: cell-based, murine
aP2 = aP2 protein expression in 3T3-L1 preadipocytes; type: cell-based, murine; conditions: after 6 d of treatment
3T3-L1 preadipocytes [10] = assay: Morphological changes (apoptosis-like) in CLA-treated cultures; type: cell-based, murine; conditions: LA supplementation of trans-10, cis-12 CLA-treated cultures

Compound: CN(CCOc1ccc(CC2SC(=O)NC2=O)cc1)c1ccccn1 (stereo not drawn) [BRL 49653]
- Percentage of cells that differentiated ([1]; 1 uM TZD): 50%
- Percentage of cells that differentiated ([1]; 10 uM TZD): 47%
- TG content, fold greater than similarly seeded cultures without BRL 49653 ([2]; Exp. 1, 10 uM, seeded at 4×10^4 cells/cm^2): 10 fold

Compound: Cn1c(=O)c2c(ncn2C)n(C)c1=O [Caffeine]
- Lipolysis, fold increase over control ([3]; 0.1 % (wt./volume)): 2.4 fold and 4.2 fold

Compound: CC(C)NCC(O)c1ccc(O)c(O)c1 (stereo not drawn) [Isoproterenal]
- Stimulation of lipolysis [4]: ~1.5 fold
- Stimulation of lipolysis [5]: approximately 2.5 fold
- Lipolysis, fold increase over control ([3]; 0.00002 % (wt./volume)): 3.4 fold

Compound: Cn1c(=O)c2[nH]cnc2n(C)c1=O [Theophylline]
- Lipolysis, fold increase over control ([3]; 0.01 % (wt./volume)): 0.8 fold
- Lipolysis, fold increase over control ([3]; 0.05 % (wt./volume)): 1.9 fold
- Lipolysis, fold increase over control ([3]; 0.1 % (wt./volume)): 3.1 fold

Compound: CCCCCC/C=C/C=C\CCCCCCCC(=O)O [cis-9, trans-11 CLA]
- Incorporation of 14C-glucose into cellular lipid per 10^6 cells, dose response [6]: neither linoleic acid nor trans-9, cis-11 CLA influenced de novo lipogenesis
- TG content, dose response ([2]; day 11): increased in a dose dependent fashion
- Abundance in lipid fractions relative to trans-10, cis-12 isomer (3T3-L1 preadipocytes [7]): 1-2 fold
- Incorporation into cellular lipid fractions (3T3-L1 preadipocytes [7]; neutral and phospholipid fractions): incorporated into the neutral and phospholipid fractions

Compound: CCCCC/C=C\C/C=C\CCCCCCCC(=O)O [linoleic acid, 9 cis, 12 cis-octadecadienoic acid]
- Incorporation of 14C-glucose into cellular lipid per 10^6 cells, dose response [6]: neither linoleic acid nor trans-9, cis-11 CLA influenced de novo lipogenesis
- Cell number (3T3-L1 preadipocytes [8]): increased cell number
- TG content, concurrent linoleic acid with trans-10, cis-12 CLA (3T3-L1 preadipocytes [9]): able to prevent the TG-lowering effects of trans-10, cis-12 CLA
- PPARγ2 protein levels, concurrent LA and trans-10, cis-12 CLA vs CLA alone (PPARγ2; 6 d): increased PPARγ2 protein levels
- PPARγ2 protein expression (PPARγ2; after 6 d of treatment): decreased
- PPARγ2 protein expression compared to BSA controls (PPARγ2; day 2 of differentiation): reduced PPARγ2 protein expression
- TG content vs other treatments / TZD treated vehicle controls ([2]; Exp. 2, 100 uM, continuous treatment, day 11): highest TG content
- TG content, dose response ([2]; day 11): increased in a dose dependent fashion
- More TG content than cultures treated with 10 uM trans-10, cis-12 CLA alone ([2]; 10 uM linoleic acid added to 10 uM trans-10, cis-12 CLA): 26%
- More TG content than cultures treated with 10 uM trans-10, cis-12 CLA alone ([2]; 30 uM linoleic acid added to 10 uM trans-10, cis-12 CLA): 55%
- More TG content than cultures treated with 10 uM trans-10, cis-12 CLA alone ([2]; 100 uM linoleic acid added to 10 uM trans-10, cis-12 CLA): 64%
- aP2 protein expression (aP2): decreased
- CLA-induced morphological changes (3T3-L1 preadipocytes [10]): inhibited the CLA-induced morphological changes in a dose-dependent manner
